Key:
A549 = assay: MTT colorimetric assay, A549; assay type: cell-based; settings: Homo sapiens, 72 h treatment, mean ± SEM of six replicates of one experiment (1: 7, 13: 6 independent experiments), resistant to apoptosis, read-out: IC50 determined by MTT assays, A549
From the text: (§1) Cancer cell lines were obtained from either the European Collection of Cell Cultures (ECACC; Salisbury, UK) or the American Type Culture Collection (ATCC; Manassas, VA). The two glioma cell lines were the U373 (ECACC code 08061901) and Hs683 (ATCC HTB-138) cell lines. The carcinoma cell lines were the A549 non-small cell carcinoma cell line (ATCC code CCL 185) and the MCF-7 mammary breast carcinoma cell line (ATCC code HTB-22). The melanoma cell lines were the mouse B16F10 cells (ATCC code CRL-6475) and the human SKMEL-28 cells (ATCC code HTB-72). The ovarian cancer cell line A2780 and its cisplatin-resistant subline A2780cis were obtained from Sigma-Aldrich (St. Louis, MO, USA). Colon cancer HCT116 cells were obtained from ATCC (CCL-247) and the oxaliplatin-resistant subline HCT116/OxR established in the W. Berger lab[59]. The HeLa cell derivative KB-3-1 and the colchicine-selected, highly ABCB1-overexpressing subline KB-C-1 were generously donated by Dr. D. W. Shen, Bethesda, MD. RKOp53wt colon cancer cells together with the RKOp53KO (homozygous knock-out) subline[60] were generously provided by Dr. Vogelstein from John Hopkins University, Baltimore. The correct origin of all cell models was confirmed by STR during performance of the experiments. All cell lines were cultured in RPMI1640 culture medium supplemented with 10% heat-inactivated fetal bovine serum, 2% L-glutamine (0.6 mg/mL), 2% penicillin/streptomycin (200 IU/mL and 200 μg/mL) and 0.1 mg/mL gentamicin.
(§2) The MTT (3-(4,5-dimethylthiazol-2-yl)-2,5-diphenyl tetrazolium bromide) colorimetric assay has been conducted as described previously. Briefly, cells were seeded 24 h before their treatment with each compound for a period of 72 h. The concentrations tested ranged from 10 nM to 100 µM. Each assay was conducted in sextuplicates. The number of independent experiments is mentioned in the legend of the tables.

SKMEL-28 = assay: MTT colorimetric assay, SKMEL-28; assay type: cell-based; settings: Homo sapiens, SK-MEL-28; 72 h treatment; mean ± SEM; resistant to apoptosis; read-out: IC50 determined by MTT assays, SKMEL-28
From the text: as §1, §2

U373 = assay: MTT colorimetric assay, U373; assay type: cell-based; settings: Homo sapiens, U373 MG; 72 h treatment; mean ± SEM; resistant to apoptosis; read-out: IC50 determined by MTT assays, U373
From the text: as §1, §2

MCF7 = assay: MTT colorimetric assay, MCF7; assay type: cell-based; settings: Homo sapiens, 72 h treatment, mean ± SEM, sensitive to apoptosis, read-out: IC50 determined by MTT assays, MCF7
From the text: as §1, §2

Hs683 = assay: MTT colorimetric assay, Hs683; assay type: cell-based; settings: Homo sapiens, Hs 683; 72 h treatment; mean ± SEM; sensitive to apoptosis; read-out: IC50 determined by MTT assays, Hs683
From the text: as §1, §2

B16F10 = assay: MTT colorimetric assay, B16F10; assay type: cell-based; settings: Mus musculus, B16-F10; 72 h treatment; mean ± SEM; sensitive to apoptosis; read-out: IC50 determined by MTT assays, B16F10
From the text: as §1, §2

[1] = system: A549, SKMEL-28, U373, MCF7, Hs683, B16F10; assay: MTT colorimetric assay, mean of the six cell lines; assay type: cell-based; settings: for IC50: 72 h, mean over the six cell lines, 72 h treatment, read-out: IC50 determined by MTT assays, Mean
From the text: as §1, §2

[2] = system: 60 cancer cell line panel; settings: NCI database value; ref NCI database; read-out: LC50 (NCI); cited from earlier work
A2780 = assay: MTT assay, A2780 (parental sensitive); assay type: cell-based; settings: 72 h treatment; ± standard deviation; parental sensitive model; read-out: IC50 determined by MTT assays, A2780
From the text: as §1, §2
(§3) SI Table 1: IC50 determined by MTT assays. Mean concentration (± standard deviation) in µM required to
(§4) reduce the viability of cells by 50% after a 72 h treatment relative to the control.
(§5) Parental sensitive models Drug-resistant models

RKO/P53wt = assay: MTT assay, RKO/P53wt (parental sensitive); assay type: cell-based; settings: 72 h treatment; ± standard deviation; parental sensitive model; read-out: IC50 determined by MTT assays, RKO/P53wt
From the text: as §1, §2, §3, §4, §5

A2780R = assay: MTT assay, A2780R (cisplatin-resistant); assay type: cell-based; settings: 72 h treatment; ± standard deviation; drug-resistant model; read-out: IC50 determined by MTT assays, A2780R
From the text: as §1, §2, §3, §4, §5

RKO/p53ko = assay: MTT assay, RKO/p53ko; assay type: cell-based; settings: 72 h treatment; ± standard deviation; drug-resistant model; read-out: IC50 determined by MTT assays, RKO/p53ko
From the text: as §1, §2, §3, §4, §5

KB-3-1 = assay: MTT assay, KB-3-1 (parental sensitive); assay type: cell-based; settings: Homo sapiens, KB 3-1, 72 h, read-out: IC50 determined by MTT assays, KB-3-1
From the text: as §1, §2, §3, §4, §5

KB-C-1 = assay: MTT assay, KB-C-1 (ABCB1-overexpressing); assay type: cell-based; settings: KBC-1, 72 h, read-out: IC50 determined by MTT assays, KB-C-1
From the text: as §1, §2, §3, §4, §5

Hct116 = assay: MTT assay, Hct116 (parental sensitive); assay type: cell-based; settings: 72 h treatment; ± standard deviation; parental sensitive model; read-out: IC50 determined by MTT assays, Hct116
From the text: as §1, §2, §3, §4, §5

Hct116/OxR = assay: MTT assay, Hct116/OxR (oxaliplatin-resistant); assay type: cell-based; settings: 72 h treatment; ± standard deviation; drug-resistant model; read-out: IC50 determined by MTT assays, Hct116/OxR
From the text: as §1, §2, §3, §4, §5

| Structure (SMILES) | IC50 (A549) [nM] | IC50 (SKMEL-28) [nM] | IC50 (U373) [nM] | IC50 (MCF7) [nM] | IC50 (Hs683) [nM] | IC50 (B16F10) [nM] | IC50 [1] [nM] | CC50 [2] [nM] | further results |
| --- | --- | --- | --- | --- | --- | --- | --- | --- | --- |
| CC1(C=CCCBr)C=C2C(=O)C3(O)OC(=O)C4(CCCC(C)(C)C34)C2(O)CC1 (stereo not drawn) [Compound 11] | 2000 ± 130 | 2770 ± 180 | 2810 ± 80 | 2890 ± 80 | 2990 ± 70 | 2550 ± 130 | 2670 ± 150 |  |  |
| CC1(C=Cc2ccccc2)C=C2C(=O)C3(O)OC(=O)C4(CCCC(C)(C)C34)C2(O)CC1 (stereo not drawn) [Compound 12] | 1610 ± 140 | 2290 ± 90 | 3060 ± 70 | 3060 ± 220 | 2720 ± 110 | 2520 ± 210 | 2540 ± 220 |  |  |
| C=CCCCc1ccc2ccc3cccc4ccc1c2c34 [Compound 14, reference compound] | 78800 ± 1260 | > 100000 | > 100000 | 76000 ± 1550 | 96120 ± 500 | 73100 ± 1320 | > 87300 |  | activity in the cancer cell panel ([1]; MTT, alone): inactive |
| CC1(C=CCCCCc2ccc3ccc4cccc5ccc2c3c45)C=C2C(=O)C3(O)OC(=O)C4(CCCC(C)(C)C34)C2(O)CC1 (stereo not drawn) [Compound 23] | 600 ± 20 | 370 ± 10 | 660 ± 20 | 420 ± 30 | 640 ± 20 | 270 ± 10 | 490 ± 70 |  |  |
| CC1(C=CCCc2ccc3ccc4cccc5ccc2c3c45)C=C2C(=O)C3(O)OC(=O)C4(CCCC(C)(C)C34)C2(O)CC1 (stereo not drawn) [Compound 24] | 1200 ± 200 | 1300 ± 140 | 2200 ± 200 | 1200 ± 200 | 2400 ± 100 | 98 ± 40 | 1400 ± 340 |  |  |
| COc1ccc(C(=O)/C(Br)=C\C(=O)O)cc1 [Cytembena] |  |  |  |  |  |  |  | 802000 |  |
| COc1ccc2c(c1)-c1nn(CCCN(C)C)c3ccc([N+](=O)[O-])c(c13)N2 [Pyrazolo acridine] |  |  |  |  |  |  |  | 23300 |  |
| CC/C(=C(\c1ccccc1)c1ccc(OCCN(C)C)cc1)c1ccccc1 [Tamoxifen] |  |  |  |  |  |  |  | 26000 |  |
| O=c1n(CC2CO2)c(=O)n(CC2CO2)c(=O)n1CC1CO1 (stereo not drawn) [Teroxirone] |  |  |  |  |  |  |  | 387000 |  |
| N.N.[Cl][Pt][Cl] [cisplatin] |  |  |  |  |  |  |  |  | IC50 (A2780): 1800 ± 90 nM; IC50 (RKO/P53wt): 2000 ± 300 nM; IC50 (A2780R): > 10000 nM; IC50 (RKO/p53ko): 3700 ± 1200 nM |
| COc1cccc2c1C(=O)c1c(O)c3c(c(O)c1C2=O)C[C@@](O)(C(=O)CO)C[C@@H]3O[C@H]1C[C@H](N)[C@H](O)[C@H](C)O1 [doxorubicin] |  |  |  |  |  |  |  |  | IC50 (KB-3-1): 59 ± 30 nM; IC50 (KB-C-1): > 250000 nM |
| O=C1[O][Pt]2([NH][C@@H]3CCCC[C@H]3[NH]2)[O]C1=O [oxaliplatin] |  |  |  |  |  |  |  |  | IC50 (Hct116): 600 ± 80 nM; IC50 (Hct116/OxR): 22100 ± 2300 nM |

Source: PMC11199504, “New hemisynthetic derivatives of sphaeropsidin phytotoxins triggering severe endoplasmic reticulum swelling in cancer cells” (Scientific Reports, 2024)
